Assay results reported in PubChem BioAssay AID330 (DTP/NCI, 2004).
“And” between values parts separate entries of the source, which are not always exact repeats. Equal values may be shown once. Toxic doses and inconclusive results are not listed.

Test system: P388 leukemia ip, CD2F1 mice, survival T/C
Experiment: NCI In Vivo Anticancer Drug Screen. Data for tumor model P388 Leukemia (intraperitoneal) in CD2F1 (CDF1) mice
Details: endpoint: median survival time, higher = longer survival
Method in brief: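 Mice carrying the transplanted tumor received test compound or vehicle. Survival was recorded in each group, and the value is the treated-group measurement divided by that of the vehicle-treated control group.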

[1] = dose: 50.0 mg/kg/injection, schedule: Q01DX009 (ip), vehicle: saline with Tween-80
[2] = dose: 100.0 mg/kg/injection, schedule: Q01DX009 (ip), vehicle: saline with Tween-80
[3] = dose: 50.0 mg/kg/injection, schedule: Q01DX005 (ip), vehicle: saline with Tween-80
[4] = dose: 200.0 mg/kg/injection, schedule: Q01DX005 (ip), vehicle: saline with Tween-80
[5] = dose: 50.0 mg/kg/injection, schedule: Q01DX005 (ip), vehicle: Klucel (hydroxypropylcellulose) (HPC)
[6] = dose: 25.0 mg/kg/injection, schedule: Q01DX009 (ip), vehicle: saline with Tween-80
[7] = dose: 50.0 mg/kg/injection, schedule: Q01DX009 (ip), vehicle: saline
[8] = dose: 100.0 mg/kg/injection, schedule: Q01DX009 (ip), vehicle: saline
[9] = dose: 200.0 mg/kg/injection, schedule: Q01DX009 (ip), vehicle: saline
[10] = dose: 50.0 mg/kg/injection, schedule: Q01DX009 (ip), vehicle: Klucel (hydroxypropylcellulose) (HPC)
[11] = dose: 200.0 mg/kg/injection, schedule: Q01DX009 (ip), vehicle: Klucel (hydroxypropylcellulose) (HPC)
[12] = dose: 100.0 mg/kg/injection, schedule: Q01DX005 (ip), vehicle: saline with Tween-80
[13] = dose: 200.0 mg/kg/injection, schedule: Q01DX009 (ip), vehicle: saline with Tween-80

CC(C)c1ccc(OS(=O)(=O)C(F)(F)C(F)(F)C(F)(F)C(F)(F)F)cc1
T/C [1]: 99 % of control | T/C [2]: 105 % of control

c1cc[c]([Sn]2([c]3ccccc3)[O]CCNCC[O]2)cc1
T/C (dose: 25.0 mg/kg/injection, schedule: Q01DX005 (ip), vehicle: saline): 150 % of control | T/C (dose: 50.0 mg/kg/injection, schedule: Q01DX005 (ip), vehicle: saline): 153 % of control | T/C (dose: 100.0 mg/kg/injection, schedule: Q01DX005 (ip), vehicle: saline): 155 % of control and 160 % of control

CN(C)c1ccc(C2(c3ccccc3)NNC(=O)c3ccccc32)cc1 (stereo not drawn)
T/C (dose: 12.5 mg/kg/injection, schedule: Q01DX005 (ip), vehicle: saline with Tween-80): 92 % of control | T/C (dose: 25.0 mg/kg/injection, schedule: Q01DX005 (ip), vehicle: saline with Tween-80): 88 % of control | T/C [3]: 88 % of control | T/C [4]: 86 % of control

COc1ccc2c(c1OC)C[C@@H]1c3c(cc4c(c3-2)OCO4)CCN1C
T/C (dose: 6.25 mg/kg/injection, schedule: Q01DX005 (ip), vehicle: Klucel (hydroxypropylcellulose) (HPC)): 117 % of control | T/C (dose: 12.5 mg/kg/injection, schedule: Q01DX005 (ip), vehicle: Klucel (hydroxypropylcellulose) (HPC)): 105 % of control | T/C (dose: 25.0 mg/kg/injection, schedule: Q01DX005 (ip), vehicle: Klucel (hydroxypropylcellulose) (HPC)): 96 % of control | T/C [5]: 92 % of control

O=P1(N(CCCl)CCCl)Nc2cc3ccccc3cc2N1
T/C (dose: 3.13 mg/kg/injection, schedule: Q01DX009 (ip), vehicle: saline with Tween-80): 103 % of control | T/C (dose: 6.25 mg/kg/injection, schedule: Q01DX009 (ip), vehicle: saline with Tween-80): 96 % of control | T/C (dose: 12.5 mg/kg/injection, schedule: Q01DX009 (ip), vehicle: saline with Tween-80): 99 % of control | T/C [6]: 100 % of control

Cc1ccc(C2(Br)C(=O)c3ccccc3C2=O)cc1
T/C (dose: 100.0 mg/kg/injection, schedule: Q04DX002 (ip), vehicle: saline): 103 % of control | T/C (dose: 200.0 mg/kg/injection, schedule: Q04DX002 (ip), vehicle: saline): 102 % of control | T/C (dose: 400.0 mg/kg/injection, schedule: Q04DX002 (ip), vehicle: saline): 101 % of control

CN(c1ccccc1)N1C(=O)CC2(CCCC2)C1=O
T/C (dose: 100.0 mg/kg/injection, schedule: Q04DX002 (ip), vehicle: Klucel (hydroxypropylcellulose) (HPC)): 103 % of control | T/C (dose: 200.0 mg/kg/injection, schedule: Q04DX002 (ip), vehicle: Klucel (hydroxypropylcellulose) (HPC)): 106 % of control | T/C (dose: 400.0 mg/kg/injection, schedule: Q04DX002 (ip), vehicle: Klucel (hydroxypropylcellulose) (HPC)): 94 % of control

Cc1ccc(N2C(=O)CSC2=S)cc1Cl
T/C [7]: 103 % of control | T/C [8]: 94 % of control | T/C [9]: 100 % of control

N#CCCN(C(=O)Nc1ccccc1)c1ccccc1
T/C [10]: 103 % of control | T/C (dose: 100.0 mg/kg/injection, schedule: Q01DX009 (ip), vehicle: Klucel (hydroxypropylcellulose) (HPC)): 107 % of control | T/C [11]: 107 % of control

C=CC(=O)NCCCCC(N)C(=O)O (stereo not drawn)
T/C [7]: 100 % of control | T/C [8]: 100 % of control | T/C [9]: 97 % of control

CC1=CC(=O)[C@@H](O)[C@]2(C)[C@H]3[C@@H](O)[C@H](O)[C@@]4(C)OC[C@@]35[C@@H](C[C@@H]12)OC(=O)C[C@]54O
T/C (dose: 1.0 mg/kg/injection, schedule: Q01DX009 (ip), vehicle: saline): 115 % of control | T/C (dose: 8.0 mg/kg/injection, schedule: Q01DX009 (ip), vehicle: saline): 153 % of control

O=C(O)COCC(F)(F)C(F)(F)C(F)(F)COCC(=O)O
T/C (dose: 176.0 mg/kg/injection, schedule: Q04DX003 (ip), vehicle: saline): 100 % of control | T/C (dose: 264.0 mg/kg/injection, schedule: Q04DX003 (ip), vehicle: saline): 91 % of control | T/C (dose: 400.0 mg/kg/injection, schedule: Q04DX003 (ip), vehicle: saline): 100 % of control

COc1cc(=O)n(-c2ccccc2)nc1C#N
T/C [3]: 93 % of control | T/C [12]: 92 % of control | T/C [4]: 90 % of control

O=C(O)CCCSC(=S)c1ccccc1
T/C (dose: 12.5 mg/kg/injection, schedule: Q01DX009 (ip), vehicle: Klucel (hydroxypropylcellulose) (HPC)): 102 % of control | T/C (dose: 25.0 mg/kg/injection, schedule: Q01DX009 (ip), vehicle: Klucel (hydroxypropylcellulose) (HPC)): 100 % of control | T/C [10]: 98 % of control and 105 % of control | T/C [11]: 101 % of control

C=C1CC2(CC3CCC2(C)C3(C)C)OC1=O (stereo not drawn)
T/C (dose: 100.0 mg/kg/injection, schedule: Q01DX001 (ip), vehicle: saline): 98 % of control | T/C (dose: 200.0 mg/kg/injection, schedule: Q01DX001 (ip), vehicle: saline): 99 % of control | T/C (dose: 400.0 mg/kg/injection, schedule: Q01DX001 (ip), vehicle: saline): 99 % of control

Cc1ccc2[nH]c(=O)c(=O)[nH]c2c1
T/C [6]: 119 % of control | T/C [1]: 103 % of control | T/C [2]: 105 % of control | T/C [13]: 104 % of control

Nc1ncnc2c1ncn2Cc1cccnc1
T/C [5]: 98 % of control | T/C (dose: 100.0 mg/kg/injection, schedule: Q01DX005 (ip), vehicle: Klucel (hydroxypropylcellulose) (HPC)): 98 % of control | T/C (dose: 200.0 mg/kg/injection, schedule: Q01DX005 (ip), vehicle: Klucel (hydroxypropylcellulose) (HPC)): 100 % of control

CCCCCCCC/C=C\C(O)=C1\C(=O)NC(CCCNC(=O)OCc2ccccc2)C1=O (stereo not drawn)
T/C (dose: 25.0 mg/kg/injection, schedule: Q04DX002 (ip), vehicle: saline with Tween-80): 100 % of control | T/C (dose: 50.0 mg/kg/injection, schedule: Q04DX002 (ip), vehicle: saline with Tween-80): 100 % of control | T/C (dose: 100.0 mg/kg/injection, schedule: Q04DX002 (ip), vehicle: saline with Tween-80): 86 % of control | T/C (dose: 200.0 mg/kg/injection, schedule: Q04DX002 (ip), vehicle: saline with Tween-80): 91 % of control | T/C (dose: 400.0 mg/kg/injection, schedule: Q04DX002 (ip), vehicle: saline with Tween-80): 103 % of control

Cc1c2cc[n+](CCCCCCCC[n+]3ccc4c(C)c5[nH]c6ccccc6c5cc4c3C)c(C)c2cc2c1[nH]c1ccccc12
T/C (dose: 0.78 mg/kg/injection, schedule: Q04DX003 (ip), vehicle: distilled water + Tween-80): 106 % of control | T/C (dose: 1.56 mg/kg/injection, schedule: Q04DX003 (ip), vehicle: distilled water + Tween-80): 106 % of control | T/C (dose: 3.13 mg/kg/injection, schedule: Q04DX003 (ip), vehicle: distilled water + Tween-80): 109 % of control | T/C (dose: 6.25 mg/kg/injection, schedule: Q04DX003 (ip), vehicle: distilled water + Tween-80): 103 % of control and 113 % of control | T/C (dose: 12.5 mg/kg/injection, schedule: Q04DX003 (ip), vehicle: distilled water + Tween-80): 105 % of control and 116 % of control and 122 % of control | T/C (dose: 25.0 mg/kg/injection, schedule: Q04DX003 (ip), vehicle: distilled water + Tween-80): 116 % of control and 121 % of control and 123 % of control | T/C (dose: 100.0 mg/kg/injection, schedule: Q04DX003 (ip), vehicle: distilled water + Tween-80): 121 % of control

CC(C)CC1N=C(NN=C(CCl)CCl)SP1(=O)NNc1ncccn1 (stereo not drawn)
T/C (dose: 60.0 mg/kg/injection, schedule: Q01DX005 (ip), vehicle: Klucel (hydroxypropylcellulose) (HPC)): 100 % of control | T/C (dose: 120.0 mg/kg/injection, schedule: Q01DX005 (ip), vehicle: Klucel (hydroxypropylcellulose) (HPC)): 100 % of control | T/C (dose: 240.0 mg/kg/injection, schedule: Q01DX005 (ip), vehicle: Klucel (hydroxypropylcellulose) (HPC)): 113 % of control

O/N=C\c1ccccc1P(c1ccccc1)c1ccccc1/C=N\O
T/C [3]: 93 % of control | T/C [12]: 92 % of control | T/C [4]: 90 % of control

NC(Cc1ccccc1)C(=O)OCN1C(=O)C2C3C=CC(C2C1=O)C1C2C(=O)N(COC(=O)C(N)Cc4ccccc4)C(=O)C2C31 (stereo not drawn)
T/C (dose: 12.5 mg/kg/injection, schedule: Q01DX009 (ip), vehicle: water): 103 % of control | T/C (dose: 25.0 mg/kg/injection, schedule: Q01DX009 (ip), vehicle: saline): 100 % of control and 102 % of control | T/C (dose: 25.0 mg/kg/injection, schedule: Q01DX009 (ip), vehicle: water): 106 % of control and 113 % of control and 103 % of control | T/C [7]: 110 % of control | T/C (dose: 50.0 mg/kg/injection, schedule: Q01DX009 (ip), vehicle: water): 109 % of control and 124 % of control | T/C [8]: 184 % of control | T/C (dose: 100.0 mg/kg/injection, schedule: Q01DX009 (ip), vehicle: water): 189 % of control and 197 % of control | T/C (dose: 150.0 mg/kg/injection, schedule: Q01DX009 (ip), vehicle: saline): 192 % of control

O=C(c1ccc(Cl)cc1)c1nnc(Cl)s1
T/C [1]: 110 % of control | T/C [2]: 118 % of control | T/C [13]: 101 % of control
